Reference: patent US9504685B2, “Method for treating a pulmonary hypertension condition” (Gilead Sciences, Inc., priority 2006, dated 2016)
pKi: −log10 of the molar value.

Legend:
ETA receptor = target: T1, ETA receptor (Homo sapiens, UniProt P25101); conditions: read-out: affinity for the ETA receptor; cited from earlier work
T1 sequence (P25101 21-427): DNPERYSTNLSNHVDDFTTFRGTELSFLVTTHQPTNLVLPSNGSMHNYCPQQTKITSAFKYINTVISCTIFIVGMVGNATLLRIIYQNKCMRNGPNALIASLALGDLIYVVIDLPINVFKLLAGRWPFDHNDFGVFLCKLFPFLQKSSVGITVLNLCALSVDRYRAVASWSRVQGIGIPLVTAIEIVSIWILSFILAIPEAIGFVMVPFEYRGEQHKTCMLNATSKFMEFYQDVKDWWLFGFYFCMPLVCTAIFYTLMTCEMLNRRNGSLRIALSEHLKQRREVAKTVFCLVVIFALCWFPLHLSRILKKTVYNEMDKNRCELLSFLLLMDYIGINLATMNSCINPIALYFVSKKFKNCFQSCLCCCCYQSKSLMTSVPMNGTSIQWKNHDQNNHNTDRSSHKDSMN

subjects with PAH = experiment: Example 1 (ARIES-2) Phase III trial, disposition, safety and tolerability; format: in vivo; conditions: for Subjects who died: 12 weeks
Procedure: Change from Week 0 to Week 12 was determined.

[1] = male subjects, 2.5 mg once daily

Question: With COC(c1ccccc1)(c1ccccc1)[C@H](Oc1nc(C)cc(C)n1)C(=O)O [ambrisentan] as the molecule, how does the pKi (ETA receptor) read?
Answer: ~10.92

Question: What about the “subjects who died during the study or within 30 days of the last dose” value (subjects with PAH; 2.5 mg once daily) of the same molecule?
Answer: 3.1%

Question: And the Subjects who died (subjects with PAH; 2.5 mg once daily)?
Answer: 2 (3.1) subjects (% of safety populati

Question: And the “subjects who died during the 12-week study” value (subjects with PAH; 5 mg once daily)?
Answer: No subjects

Question: What about the Subjects who died (subjects with PAH; 5 mg once daily) of the same molecule?
Answer: 0 (0.0) subjects (% of safety populati

Question: What about the Subjects who died (subjects with PAH; combined 2.5 mg and 5 mg groups) of the same molecule?
Answer: 2 (1.6) subjects (% of safety populati

Question: And the “male fertility hormones and serial semen samples” value (subjects with PAH; in vivo)?
Answer: did not suggest that ambrisentan was associated with an adverse effect on male reproductive potential

Question: What about the “mean changes from baseline at Week 12 for serum ALT and AST” value (subjects with PAH; in vivo) of the same molecule?
Answer: no notable mean changes

Question: What about the “mean total bilirubin and mean alkaline phosphatase” value (subjects with PAH; in vivo) of the same molecule?
Answer: notable decrease

Question: What about the “subjects who developed elevated serum aminotransferase concentrations >3.0×ULN” value (subjects with PAH; in vivo) of the same molecule?
Answer: None

Question: And the “change in testosterone concentration over the 12-week study” value (subjects with PAH; [1])?
Answer: -0.09 ± 4.595 nmol/L

Question: What about the “change over baseline in FSH concentration at Week 12” value (subjects with PAH; [1]) of the same molecule?
Answer: +0.58 IU/liter

Question: What about the “change in testosterone concentration over the 12-week study” value (subjects with PAH; male subjects, 5 mg once daily) of the same molecule?
Answer: -2.61 ± 6.962 nmol/L
